# From US12377071B2, “Methods of treating conditions related to the S1P1 receptor” (Arena Pharmaceuticals, Inc., priority 2015, dated 2025)
# Counter-ions that a name gives are not always drawn.
# Experiments:
# Assay type in all cases: in vivo, human
# Conditions in all cases: Day 1 to Day 28
# healthy adult subjects [1] = assay: Multiple ascending dose study: heart rate, safety population
# Method: (§1) A randomized, double-blind, placebo-controlled, sequential, ascending, multiple dose study to assess the safety, tolerability, and pharmacokinetics of the L-arginine salt of Compound 1 administered to healthy adult subjects was conducted. This study was designed to evaluate the safety, tolerability, pharmacokinetics, and pharmacodynamics of the L-arginine salt of Compound 1.
# (§2) Cohort 1 was dosed with 0.7 mg (by administering two 0.35 mg formulations) for 21 days. Cohort 2 was dosed with 1.35 mg (by administering both a 0.35 mg formulation and a 1 mg formulation) for 21 days. Cohort 3 was dosed with 2.0 mg for 21 days. Cohort 4 was dosed with 0.35 mg for 7 days and then with 2.0 mg for 14 days. Cohort 5 was dosed with 0.5 for 7 days and then with 3.0 mg (by administering both a 1 mg formulation and a 2 mg formulation) for 14 days.
# (§3) The following safety assessments were conducted: physical examinations with ophthalmoscopy, clinical laboratory tests (serum chemistry, coagulation, and urinalysis), vital signs, continuous telemetry (12 lead ECG), safety ECGs, pulmonary function testing (PFT), serum protein electrophoresis (SPEP) and serum immunoelectrophoresis (IEP), and adverse event reporting.
# healthy adult subjects [2] = assay: Multiple ascending dose study: diastolic BP, safety population
# Method: as §1, §2, §3
# healthy adult subjects [3] = assay: Multiple ascending dose study: systolic BP, safety population
# Method: as §1, §2, §3
# [4] = 0.35 mg for 7 days then 2.0 mg for 14 days
# [5] = 0.5 mg for 7 days then 3.0 mg for 14 days
structure (smiles),measurement,setting,value
O=C(O)C[C@H]1CCc2c1[nH]c1ccc(OCc3ccc(C4CCCC4)c(C(F)(F)F)c3)cc21 [L-arginine salt of Compound 1],"Minimum Value for Post-dose Heart Rate, Change from Baseline, Mean",healthy adult subjects [1]; [4],−10.60 BPM
same,"Minimum Value for Post-dose Heart Rate, Change from Baseline, Median",healthy adult subjects [1]; [4],−7.00 BPM
same,"Minimum Value for Post-dose Heart Rate, Change from Baseline, Min, Max",healthy adult subjects [1]; [4],−35.00 to 3.00 BPM
same,"Minimum Value for Post-dose Heart Rate, On Treatment Mean",healthy adult subjects [1]; [4],52.00 BPM
same,"Minimum Value for Post-dose Heart Rate, Change from Baseline, Mean",healthy adult subjects [1]; [5],−7.30 BPM
same,"Minimum Value for Post-dose Heart Rate, Change from Baseline, Median",healthy adult subjects [1]; [5],−6.50 BPM
same,"Minimum Value for Post-dose Heart Rate, Change from Baseline, Min, Max",healthy adult subjects [1]; [5],−14.00 to −2.00 BPM
same,"Minimum Value for Post-dose Heart Rate, On Treatment Mean",healthy adult subjects [1]; [5],53.80 BPM
same,"Minimum Value for Post-dose Heart Rate, Change from Baseline, Mean",healthy adult subjects [1]; 0.7 mg for 21 days,−5.50 BPM
same,"Minimum Value for Post-dose Heart Rate, Change from Baseline, Median",healthy adult subjects [1]; 0.7 mg for 21 days,−5.00 BPM
same,"Minimum Value for Post-dose Heart Rate, Change from Baseline, Min, Max",healthy adult subjects [1]; 0.7 mg for 21 days,−12.00 to −1.00 BPM
same,"Minimum Value for Post-dose Heart Rate, On Treatment Mean",healthy adult subjects [1]; 0.7 mg for 21 days,54.20 BPM
same,"Minimum Value for Post-dose Heart Rate, Change from Baseline, Mean",healthy adult subjects [1]; 1.35 mg for 21 days,−6.20 BPM
same,"Minimum Value for Post-dose Heart Rate, Change from Baseline, Median",healthy adult subjects [1]; 1.35 mg for 21 days,−5.00 BPM
same,"Minimum Value for Post-dose Heart Rate, Change from Baseline, Min, Max",healthy adult subjects [1]; 1.35 mg for 21 days,−18.00 to 3.00 BPM
same,"Minimum Value for Post-dose Heart Rate, On Treatment Mean",healthy adult subjects [1]; 1.35 mg for 21 days,54.40 BPM
same,"Minimum Value for Post-dose Heart Rate, Change from Baseline, Mean",healthy adult subjects [1]; 2.0 mg for 21 days,−8.30 BPM
same,"Minimum Value for Post-dose Heart Rate, Change from Baseline, Median",healthy adult subjects [1]; 2.0 mg for 21 days,−7.50 BPM
same,"Minimum Value for Post-dose Heart Rate, Change from Baseline, Min, Max",healthy adult subjects [1]; 2.0 mg for 21 days,−16.00 to −3.00 BPM
same,"Minimum Value for Post-dose Heart Rate, On Treatment Mean",healthy adult subjects [1]; 2.0 mg for 21 days,51.00 BPM
same,"Minimum Value for Post-dose Diastolic BP, Change from Baseline, Mean",healthy adult subjects [2]; [4],−7.90 mmHg
same,"Minimum Value for Post-dose Diastolic BP, Change from Baseline, Median",healthy adult subjects [2]; [4],−6.00 mmHg
same,"Minimum Value for Post-dose Diastolic BP, Change from Baseline, Min, Max",healthy adult subjects [2]; [4],−19.00 to −1.00 mmHg
same,"Minimum Value for Post-dose Diastolic BP, On Treatment Mean",healthy adult subjects [2]; [4],50.80 mmHg
same,"Minimum Value for Post-dose Diastolic BP, Change from Baseline, Mean",healthy adult subjects [2]; [5],−6.30 mmHg
same,"Minimum Value for Post-dose Diastolic BP, Change from Baseline, Median",healthy adult subjects [2]; [5],−7.00 mmHg
same,"Minimum Value for Post-dose Diastolic BP, Change from Baseline, Min, Max",healthy adult subjects [2]; [5],−13.00 to 3.00 mmHg
same,"Minimum Value for Post-dose Diastolic BP, On Treatment Mean",healthy adult subjects [2]; [5],50.20 mmHg
same,"Minimum Value for Post-dose Diastolic BP, Change from Baseline, Mean",healthy adult subjects [2]; 0.7 mg for 21 days,−6.10 mmHg
same,"Minimum Value for Post-dose Diastolic BP, Change from Baseline, Median",healthy adult subjects [2]; 0.7 mg for 21 days,−6.00 mmHg
same,"Minimum Value for Post-dose Diastolic BP, Change from Baseline, Min, Max",healthy adult subjects [2]; 0.7 mg for 21 days,−16.00 to 2.00 mmHg
same,"Minimum Value for Post-dose Diastolic BP, On Treatment Mean",healthy adult subjects [2]; 0.7 mg for 21 days,56.00 mmHg
same,"Minimum Value for Post-dose Diastolic BP, Change from Baseline, Mean",healthy adult subjects [2]; 1.35 mg for 21 days,−5.20 mmHg
same,"Minimum Value for Post-dose Diastolic BP, Change from Baseline, Median",healthy adult subjects [2]; 1.35 mg for 21 days,−7.50 mmHg
same,"Minimum Value for Post-dose Diastolic BP, Change from Baseline, Min, Max",healthy adult subjects [2]; 1.35 mg for 21 days,−11.00 to 6.00 mmHg
same,"Minimum Value for Post-dose Diastolic BP, On Treatment Mean",healthy adult subjects [2]; 1.35 mg for 21 days,53.70 mmHg
same,"Minimum Value for Post-dose Diastolic BP, Change from Baseline, Mean",healthy adult subjects [2]; 2.0 mg for 21 days,−11.20 mmHg
same,"Minimum Value for Post-dose Diastolic BP, Change from Baseline, Median",healthy adult subjects [2]; 2.0 mg for 21 days,−9.00 mmHg
same,"Minimum Value for Post-dose Diastolic BP, Change from Baseline, Min, Max",healthy adult subjects [2]; 2.0 mg for 21 days,−21.00 to −4.00 mmHg
same,"Minimum Value for Post-dose Diastolic BP, On Treatment Mean",healthy adult subjects [2]; 2.0 mg for 21 days,45.30 mmHg
same,"Minimum Value for Post-dose Systolic BP, Change from Baseline, Mean",healthy adult subjects [3]; [4],−13.00 mmHg
same,"Minimum Value for Post-dose Systolic BP, Change from Baseline, Median",healthy adult subjects [3]; [4],−13.00 mmHg
same,"Minimum Value for Post-dose Systolic BP, Change from Baseline, Min, Max",healthy adult subjects [3]; [4],−28.00 to 0.00 mmHg
same,"Minimum Value for Post-dose Systolic BP, On Treatment Mean",healthy adult subjects [3]; [4],94.30 mmHg
same,"Minimum Value for Post-dose Systolic BP, Change from Baseline, Mean",healthy adult subjects [3]; [5],−7.80 mmHg
same,"Minimum Value for Post-dose Systolic BP, Change from Baseline, Median",healthy adult subjects [3]; [5],−5.00 mmHg
same,"Minimum Value for Post-dose Systolic BP, Change from Baseline, Min, Max",healthy adult subjects [3]; [5],−18.00 to 5.00 mmHg
same,"Minimum Value for Post-dose Systolic BP, On Treatment Mean",healthy adult subjects [3]; [5],93.20 mmHg
same,"Minimum Value for Post-dose Systolic BP, Change from Baseline, Mean",healthy adult subjects [3]; 0.7 mg for 21 days,−9.70 mmHg
same,"Minimum Value for Post-dose Systolic BP, Change from Baseline, Median",healthy adult subjects [3]; 0.7 mg for 21 days,−9.50 mmHg
same,"Minimum Value for Post-dose Systolic BP, Change from Baseline, Min, Max",healthy adult subjects [3]; 0.7 mg for 21 days,−16.00 to −1.00 mmHg
same,"Minimum Value for Post-dose Systolic BP, On Treatment Mean",healthy adult subjects [3]; 0.7 mg for 21 days,96.10 mmHg
same,"Minimum Value for Post-dose Systolic BP, Change from Baseline, Mean",healthy adult subjects [3]; 1.35 mg for 21 days,−8.90 mmHg
same,"Minimum Value for Post-dose Systolic BP, Change from Baseline, Median",healthy adult subjects [3]; 1.35 mg for 21 days,−8.00 mmHg
same,"Minimum Value for Post-dose Systolic BP, Change from Baseline, Min, Max",healthy adult subjects [3]; 1.35 mg for 21 days,−22.00 to 3.00 mmHg
same,"Minimum Value for Post-dose Systolic BP, On Treatment Mean",healthy adult subjects [3]; 1.35 mg for 21 days,100.10 mmHg
same,"Minimum Value for Post-dose Systolic BP, Change from Baseline, Mean",healthy adult subjects [3]; 2.0 mg for 21 days,−9.80 mmHg
